≈ marks a conversion by molar mass, not a printed value. Read-outs that look alike come from different tables or passages of the source. Values belong to the molecule of their own block, whether it stands above or below them.
Experiments:
[1] = cited from earlier work
physchem = conditions: for Solubility / solubility at 1 h / solubility at 4 h / solubility at 24 h: RT; for Solubility: listed as WO2013184572A1 Form A; for solubility at 1 h / solubility at 4 h / solubility at 24 h: thermodynamic from solid
Method: 2. Add 3 mL of bio-relevant medium into each vial.
3. Cap the vials and keep all the suspension samples stirring at RT (room temperature) using a rolling incubator at a rate of 25 r/min.
4. Sample at 1 h, 4 h and 24 h respectively. About 0.6 mL aliquot of the suspension is transferred per time from solubility vial into a centrifuge filtration tube (pore size of 0.45 μm).
5. Centrifuge filtration tubes at a rate of 8500 rpm for 3 minutes at RT, collect 0.2 mL of supernatant for HPLC quantification determination and collect the rest of solution for pH measurement, and separate the solid for XRPD characterization.

[2] = DVS, 25° C.
Method: Dynamic Vapor Sorption (DVS)
Dynamic Vapor Sorption (DVS) was measured via a SMS (Surface Measurement Systems) DVS Intrinsic. The relative humidity at 25° C. were calibrated against deliquescence point of LiCl, Mg(NO3)2 and KCl. Typical Parameters for DVS test are listed below.

[3] = dish open, 180 days; for Chemical purity: HPLC; for Final form: XRPD
Method: The chemical and physical stabilities of the samples were evaluated by high performance liquid chromatography (HPLC) and XRPD.

Solubility (physchem; FeSSIF, time point 1 h): 100 µg/mL (≈ 227 µM)
Solubility (physchem; FeSSIF, time point 4 h): 110 µg/mL (≈ 250 µM)
Solubility (physchem; FeSSIF, time point 24 h): 130 µg/mL (≈ 295 µM)
Solubility (physchem; SGF, time point 1 h): 360 µg/mL (≈ 817 µM)
Solubility (physchem; SGF, time point 4 h): 390 µg/mL (≈ 885 µM)
Solubility (physchem; SGF, time point 24 h): 380 µg/mL (≈ 863 µM)
Compound: C=CC(=O)N1CCC[C@@H](n2nc(-c3ccc(Oc4ccccc4)cc3)c3c(N)ncnc32)C1 [Form A, 1-[(3R)-3-[4-amino-3-(4-phenoxyphenyl)-1H-pyrazolo [3,4-d]pyrimidin-1-yl]piperidin-1-yl]prop-2-en-1-one, reference compound]
Solubility ([1]; pH=8): 13 µg/mL (≈ 29.5 µM)

Compound: C=CC(=O)N1CCC[C@@H](n2nc(-c3ccc(Oc4ccccc4)cc3)c3c(N)ncnc32)C1 [Form B, 1-[(3R)-3-[4-amino-3-(4-phenoxyphenyl)-1H-pyrazolo [3,4-d]pyrimidin-1-yl]piperidin-1-yl]prop-2-en-1-one]
Solubility ([1]; pH=7.42): 9.6 µg/mL (≈ 21.8 µM)

Water uptake under 80% RH ([2]; 80% RH): 0.19%
Water uptake under 80% RH ([2]; 80% RH, listed as Ibrutinib Form I): 0.19%
Water uptake under 95% RH ([2]; 95% RH): 0.48%
Hygroscopicity (European pharmacopoeia criteria) ([2]; 80% RH): non-hygroscopic
Solubility in comparison to crystalline Form A (WO2013184572A1) (physchem; FeSSIF and SGF): higher solubility
solubility at 1 h (physchem; fed state simulated intestinal fluid (FeSSIF), fessif, time point 1 h): 150 µg/mL (≈ 341 µM)
solubility at 4 h (physchem; fed state simulated intestinal fluid (FeSSIF), fessif, time point 4 h): 160 µg/mL (≈ 363 µM)
solubility at 24 h (physchem; fed state simulated intestinal fluid (FeSSIF), fessif, time point 24 h): 160 µg/mL (≈ 363 µM)
solubility at 1 h (physchem; simulated gastric fluid (SGF), simulated gastric fluid, SGF, time point 1 h): 500 µg/mL (≈ 1140 µM)
solubility at 4 h (physchem; simulated gastric fluid (SGF), simulated gastric fluid, SGF, time point 4 h): 500 µg/mL (≈ 1140 µM)
solubility at 24 h (physchem; simulated gastric fluid (SGF), simulated gastric fluid, SGF, time point 24 h): 480 µg/mL (≈ 1090 µM)
Chemical purity ([3]; 25° C./60% RH): 98.98%
Final form ([3]; 25° C./60% RH): Form I
Chemical purity ([3]; 40° C./75% RH): 98.98%
Final form ([3]; 40° C./75% RH): Form I
Compound: C=CC(=O)N1CCC[C@@H](n2nc(-c3ccc(Oc4ccccc4)cc3)c3c(N)ncnc32)C1 [Form I, 1-[(3R)-3-[4-amino-3-(4-phenoxyphenyl)-1H-pyrazolo [3,4-d]pyrimidin-1-yl]piperidin-1-yl]prop-2-en-1-one]

From patent publication US9751889B2 (CRYSTAL PHARMATECH INC., priority 2013, dated 2017)
